From patent US20100056468A1, “Pyrimidine Derivatives As Anticancer Agents” (University Health Network, priority 2007, published 2010)

What was measured:
Assay in all cases: In vitro cell proliferation assay (WST.1, Table 5)
[1] = tested on: LOX; format: cell-based, human; settings: Homo sapiens, 72 h, day 3
Method: (§1) These cell lines were grown in Iscove's MDM supplemented with 5% fetal calf serum (FCS), 50 μM 2-mercaptoethanol, 100 μg/ml penicillin, and 100 μg/ml streptomycin. Cell lines growing in suspension were maintained at 0.5-1.5×10^6 cell/ml, while adherent cell lines were maintained at subconfluent densities.
(§2) Cell lines were seeded in triplicate at 10^4 cells/100 μl in 96-well plates. Peripheral blood mononuclear cells were seeded in triplicate at 10^5 cells/100 μl in 96-well plate. Different test compounds were added immediately at final concentrations ranging between 0 to 100 μM. All compounds were dissolved in sterile deionized water, so water was added to the control wells. On day 3, WST.1 assay (Roche) was used to measure the effect of different test compounds on cell growth. WST.1 assay is a calorimetric assay for the nonradioactive quantification of cell proliferation, cell viability, and cytotoxicity. The assay was performed according to manufacturer's instructions (Roche). It relies on the cleavage by cellular enzymes of WST.1 (water soluble tetrazolium salt: 4-[3-(4-iodophenyl)-2-(4-nitrophenyl)-2H-5-tetrazolio]-1,3-benzene disulfonate) to formazan. The amount of formazan dye formed correlates to the number of metabolically active cells in the culture and is readily read in an ELISA microplate reader using an absorbance wavelength of 440 nm. These OD values are plotted against concentrations of different compounds and IC50 is determined for each compound.

[2] = tested on: OCI-My-2; format: cell-based; settings: Homo sapiens, 72 h; OCI-My-2, day 3
Method: as §1, §2

[3] = tested on: MCF7; format: cell-based; settings: Homo sapiens, 72 h; MCF7, day 3
Method: as §1, §2

[4] = tested on: OCI-Ly-7; format: cell-based; settings: Homo sapiens, OCI-Ly7, 72 h; OCI-Ly-7, day 3
Method: as §1, §2

[5] = tested on: SKW3; format: cell-based; settings: Homo sapiens, 72 h; SKW3, day 3
Method: as §1, §2

[6] = tested on: MDA468; format: cell-based; settings: Homo sapiens, 72 h; MDA468, day 3
Method: as §1, §2

[7] = tested on: OCI-AML-1; format: cell-based; settings: Homo sapiens, 72 h; OCI-AML-1, day 3
Method: as §1, §2

[8] = tested on: OCI-AML-2; format: cell-based; settings: Homo sapiens, OCI-AML2, 72 h; OCI-AML-2, day 3
Method: as §1, §2

[9] = tested on: CCD967; format: cell-based; settings: Homo sapiens, CCD-967, 72 h; CCD967 normal skin line, day 3
Method: as §1, §2

[10] = tested on: PC3; format: cell-based; settings: Homo sapiens, PC-3, 72 h; PC3, day 3
Method: as §1, §2

[11] = tested on: OCVR4; format: cell-based; settings: Homo sapiens, 72 h; OCVR4, day 3
Method: as §1, §2

[12] = tested on: HS58T; format: cell-based; settings: Homo sapiens, 72 h, day 3
Method: as §1, §2

[13] = tested on: T47D; format: cell-based; settings: Homo sapiens, 72 h, day 3
Method: as §1, §2

[14] = tested on: SNB19; format: cell-based; settings: Homo sapiens, SNB-19, 72 h; SNB19, day 3
Method: as §1, §2

[15] = tested on: COLO205; format: cell-based; settings: Homo sapiens, COLO 205, 72 h; COLO205, day 3
Method: as §1, §2

| Compound | IC50 [2] | IC50 [3] | IC50 [4] | IC50 [5] | IC50 [7] | IC50 [8] | IC50 [10] | IC50 [13] | IC50 [15] | IC50 [1] | IC50 [6] | IC50 [9] | IC50 [11] | IC50 [12] | IC50 [14] |
| --- | --- | --- | --- | --- | --- | --- | --- | --- | --- | --- | --- | --- | --- | --- | --- |
| Cc1cc(=O)[nH]c(=O)n1C1CC(O)C(CO)O1 (stereo not drawn) | > 50 µM | > 50 µM | > 50 µM | > 50 µM | > 50 µM | > 50 µM |  |  |  | > 50 µM | > 50 µM |  |  |  |  |
| O=c1[nH]cc(F)c(=O)[nH]1 [5-Fluoro-uracil, reference compound] |  |  |  | 2.1 µM | 1 µM | 1.6 µM |  |  |  |  |  |  |  |  |  |
| N#Cc1cc(=O)[nH]c(=O)n1[C@@H]1O[C@H](CO)C(O)C1O (stereo partly drawn) | > 50 µM | > 50 µM | > 50 µM | > 50 µM | > 50 µM | > 50 µM | > 50 µM | > 50 µM | > 50 µM | > 50 µM | > 50 µM | > 50 µM | > 50 µM | > 50 µM | > 50 µM |
| O=Cc1cc(=O)[nH]c(=O)n1C1OC(CO)C(O)C1O (stereo not drawn) | > 50 µM | > 50 µM | > 50 µM | > 50 µM | > 50 µM | > 50 µM |  |  |  | > 50 µM | > 50 µM |  |  |  |  |
| O=c1cc(I)n([C@@H]2O[C@H](CO)C(O)C2O)c(=O)[nH]1 (stereo partly drawn) | 27.8 µM | > 50 µM | > 50 µM | 18.9 µM | 15.3 µM | > 50 µM | > 50 µM | > 50 µM | > 50 µM | > 50 µM | > 50 µM | > 50 µM | > 50 µM | > 50 µM | > 50 µM |
| Nc1cc(=O)[nH]c(=O)n1[C@@H]1O[C@H](CO)C(O)C1O (stereo partly drawn) | > 50 µM | > 50 µM | > 50 µM | > 50 µM | > 50 µM | > 50 µM | > 50 µM | > 50 µM | > 50 µM | > 50 µM | > 50 µM | > 50 µM | > 50 µM | > 50 µM | > 50 µM |
| CC(=O)OCC1OC(n2c(I)cc(=O)[nH]c2=O)C(O)C1O (stereo not drawn) | 1.3 µM | 4.4 µM | 36.2 µM | 1.6 µM | 15.2 µM | 11.7 µM | > 50 µM | > 50 µM | > 50 µM | 1.1 µM | > 50 µM | > 50 µM | > 50 µM | > 50 µM | > 50 µM |
| CN(C)c1cc(=O)[nH]c(=O)n1C1OC(CO)C(O)C1O (stereo not drawn) | > 50 µM | > 50 µM | > 50 µM | > 50 µM | > 50 µM | > 50 µM | > 50 µM | > 50 µM | > 50 µM | > 50 µM | > 50 µM | > 50 µM | > 50 µM | > 50 µM | > 50 µM |

The next lines start with results.

| IC50 [2] | IC50 [3] | IC50 [4] | IC50 [5] | IC50 [7] | IC50 [8] | IC50 [10] | IC50 [13] | IC50 [15] | Compound | IC50 [1] | IC50 [6] | IC50 [9] | IC50 [11] | IC50 [12] | IC50 [14] |
| --- | --- | --- | --- | --- | --- | --- | --- | --- | --- | --- | --- | --- | --- | --- | --- |
| > 50 µM | > 50 µM | > 50 µM | > 50 µM | > 50 µM | > 50 µM |  |  |  | O=C1C/C(=N\O)N(C2OC(CO)C(O)C2O)C(=O)N1 (stereo not drawn) | > 50 µM | > 50 µM |  |  |  |  |
| > 50 µM | > 50 µM | > 50 µM | > 50 µM | > 50 µM | > 50 µM | > 50 µM | > 50 µM | > 50 µM | Cc1cc(=O)[nH]c(=O)n1C1OC(CO)C(O)C1O (stereo not drawn) | > 50 µM | > 50 µM | > 50 µM | > 50 µM | > 50 µM | > 50 µM |
| > 50 µM | > 50 µM | > 50 µM | > 50 µM | > 50 µM | > 50 µM | > 50 µM | > 50 µM | > 50 µM | CNc1cc(=O)[nH]c(=O)n1C1OC(CO)C(O)C1O (stereo not drawn) | > 50 µM | > 50 µM | > 50 µM | > 50 µM | > 50 µM | > 50 µM |
| > 50 µM | > 50 µM | > 50 µM | > 50 µM | > 50 µM | > 50 µM | > 50 µM | > 50 µM | > 50 µM | [N-]=[N+]=Nc1cc(=O)[nH]c(=O)n1[C@@H]1O[C@H](CO)C(O)C1O (stereo partly drawn) | > 50 µM | > 50 µM | > 50 µM | > 50 µM | > 50 µM | > 50 µM |
| 42.3 µM | > 50 µM | > 50 µM | > 50 µM | > 50 µM | > 50 µM | > 50 µM | > 50 µM | > 50 µM | CCOC(=O)c1cc(=O)[nH]c(=O)n1[C@@H]1O[C@H](CO)C(O)C1O (stereo partly drawn) | > 50 µM | > 50 µM | > 50 µM | > 50 µM | > 50 µM | > 50 µM |
| > 50 µM | > 50 µM | > 50 µM | > 50 µM | > 50 µM | > 50 µM | > 50 µM | > 50 µM | > 50 µM | O=c1[nH]c(=O)n([C@@H]2O[C@H](CO)C(O)C2O)c(I)c1Br (stereo partly drawn) | > 50 µM | > 50 µM | > 50 µM | > 50 µM | > 50 µM | > 50 µM |
